The results in this text go back to patent US11613552B2, “Pharmaceutical agents, compositions, and methods relating thereto” (Alltech, Inc., priority 2017, dated 2023).

The subject of one experiment is Glut4. Kind of experiment: QRT-PCR of Glut4 mRNA in AML-12 cells. Format: cell-based, mouse. As to the method:
For RNA analysis of basal Glut4 (Slc2a4) expression (in the absence of diabetic stimuli 8-CPT/Dex), amplified AML-12 cells were cultured on 24-well (1×10^5 cells/well) plates overnight in 10% FBS ITS- and Dex-free DMEM/F12 media. These cells were washed twice with PBS to remove residual sera and then were incubated with vehicle (0.024% DMSO) or with Compound #43 (300 ppb) in serum-free DMEM/F12 media for 24 hours.
For RNA analysis of Glut4 expression in AML-12 cells cultured under simulated diabetic conditions, amplified AML-12 cells were cultured on 24-well (2×10^5 cells/well) plates in 10% FBS ITS- and Dex-free DMEM/F12 media overnight. Then these cells were washed twice with PBS to remove any potential residual sera and then were serum-starved in plain DMEM/F12 media overnight. These serum-starved AML-12 cells were then incubated with vehicle (0.024% DMSO) or with Compound #43 (300 ppb) in the presence of diabetic stimuli, 0.1 mM 8-CPT (Sigma) and 0.5 μM Dex, in serum-free plain DMEM/F12 media for 6 and 24 hours.
Total liver RNA from saline- or Compound #43-treated Lepr^db/db mice was isolated using a Qiagen RNAeasy RNA isolation kit according to the Manufacturer's protocol. Total RNA from cultured cells was isolated using Trizol (Invitrogen) according to the manufacturer's protocol, and then incubated with DNase I to remove any potential contaminating genomic DNA. […]

In the next experiment the target is T1, Insrβ (Mus musculus, UniProt P15208).
T1 construct: gastrocnemius skeletal muscle and liver samples were collected and stored at −80° C; from tissue; host or cells: gastrocnemius skeletal muscle (A22) and liver (A24) of Lepr db/db mice
T1 sequence (P15208 753-1372 limits assumed): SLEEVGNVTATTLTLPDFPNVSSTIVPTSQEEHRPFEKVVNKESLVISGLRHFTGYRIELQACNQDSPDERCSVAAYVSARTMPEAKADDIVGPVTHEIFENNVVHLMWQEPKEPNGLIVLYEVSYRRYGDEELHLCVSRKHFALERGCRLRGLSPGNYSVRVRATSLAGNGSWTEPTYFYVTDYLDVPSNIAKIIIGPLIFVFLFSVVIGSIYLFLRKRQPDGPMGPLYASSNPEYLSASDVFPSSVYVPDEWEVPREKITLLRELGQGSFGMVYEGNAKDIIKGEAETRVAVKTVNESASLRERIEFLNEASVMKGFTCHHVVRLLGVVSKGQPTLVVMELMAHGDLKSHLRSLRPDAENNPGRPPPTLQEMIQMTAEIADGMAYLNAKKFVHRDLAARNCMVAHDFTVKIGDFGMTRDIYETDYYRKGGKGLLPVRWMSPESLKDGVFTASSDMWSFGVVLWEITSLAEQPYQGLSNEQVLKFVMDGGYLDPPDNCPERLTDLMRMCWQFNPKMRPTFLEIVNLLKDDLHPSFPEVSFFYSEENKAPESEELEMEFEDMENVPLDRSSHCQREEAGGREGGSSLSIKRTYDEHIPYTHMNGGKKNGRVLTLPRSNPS
T1 sequence (P15208 28-748 partner limits assumed): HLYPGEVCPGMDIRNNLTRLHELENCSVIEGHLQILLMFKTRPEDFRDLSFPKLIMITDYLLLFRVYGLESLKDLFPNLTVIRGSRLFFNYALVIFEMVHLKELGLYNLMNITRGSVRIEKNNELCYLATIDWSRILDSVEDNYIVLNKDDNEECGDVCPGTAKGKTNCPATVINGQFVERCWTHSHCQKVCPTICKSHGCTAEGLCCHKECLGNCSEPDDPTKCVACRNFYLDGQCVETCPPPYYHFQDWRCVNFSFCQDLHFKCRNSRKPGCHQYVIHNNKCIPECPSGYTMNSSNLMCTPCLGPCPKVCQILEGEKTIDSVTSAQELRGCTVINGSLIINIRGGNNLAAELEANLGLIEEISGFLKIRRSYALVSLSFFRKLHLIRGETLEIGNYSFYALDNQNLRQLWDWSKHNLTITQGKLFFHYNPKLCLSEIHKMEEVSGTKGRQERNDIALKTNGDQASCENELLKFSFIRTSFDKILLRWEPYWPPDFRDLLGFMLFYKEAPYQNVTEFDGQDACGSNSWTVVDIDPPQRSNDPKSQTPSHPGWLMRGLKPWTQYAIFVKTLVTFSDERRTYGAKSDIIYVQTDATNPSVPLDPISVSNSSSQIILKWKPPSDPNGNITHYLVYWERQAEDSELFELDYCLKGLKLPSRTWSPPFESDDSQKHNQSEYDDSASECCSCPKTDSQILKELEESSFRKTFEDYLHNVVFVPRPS
Briefly: ELISA of phospho-Insrβ in livers of Lepr^db/db mice. Format: in vivo. Particulars: 0.136 mg/kg ip daily. As to the method: Male Lepr^db/db mice (C57BL/6J strain, purchased from The Jackson Laboratory) at postnatal day 38 were intraperitoneally injected daily with physiological saline ([…]) containing 0.2% DMSO, or 0.136 mg of Compound #43 per kilogram body weight, diluted in the sterile physiological saline) for 52 days. After the treatment, gastrocnemius skeletal muscle and liver samples were collected and stored at −80° C.
Frozen skeletal muscle and liver tissues were minced in sterile ice-old PBS containing complete proteinase and phosphatase inhibitors (Thermo-Fisher Scientific, Waltham, Mass.) and subjected to homogenization using a tissue homogenizer (Thermo-Fisher Scientific, Waltham, Mass.). These tissue homogenates were diluted in Themo-Fisher's premade RIPA buffer (1 part homogenate/2 part of RIPA buffer) containing complete proteinase/phosphatase inhibitors to extract the proteins. Proteins in the homogenates were extracted in RIPA buffer at 4° C. overnight. These overnight-extracted protein/tissue lysates were centrifuged at 12000×g for 30 min at 4° C., and the protein levels in the supernatant of these tissue lysates were determined using the Pierce Micro-BCA protein assay kit (Thermo Scientific-Piece Biotechnology, Rockford, Ill.) according to the manufacturer's protocol. […]

For a further experiment, the system named is Lepr^db/db mice. Kind of experiment: Chronic treatment: fasting blood glucose and HbA1c in Lepr^db/db mice. Type of experiment: in vivo, mouse. As to the method:
Male Lepr^db/db mice at 38 days of age were intraperitoneally (ip) injected daily with physiological saline ([…]) containing 0.2% DMSO, Compound #C, Compound #50, Compound #68, and/or Compound #43 (25 μg selenium or sulfur equivalents of each compound per kilogram body weight, diluted in sterile physiological saline) for periods ranging from 43-90 days. Body weights of the above treated mice were recorded daily using a balance and any visible abnormal animal gross morphology and walking behavior were monitored daily. After the treatments, animals were fasted overnight and then subjected to blood glucose or HbA1c assays, glucose tolerance tests or tissue collections.
For comparative studies of any potential anti-diabetic effects of Compounds #43, #69 and #70, male Lepr^db/db mice at 41 days of age were intraperitoneally (ip) injected daily with physiological saline ([…]) containing 0.2% DMSO, Compound #43, Compound #69, or Compound #70 (25 μg selenium of each compound per kilogram body weight, diluted in sterile physiological saline). After the treatments for 43 days, animals were fasted overnight and then subjected to blood glucose and glucose tolerance tests. After daily treatments of these compounds for 90 days, sera from these animals were collected and then subjected to blood HbA1c assays.
After treatment with physiological saline or compounds or after the injection of a bolus of glucose, a small drop of blood from each mouse was collected by snipping the mouse tail tip. Blood glucose levels were determined using a Glucometer with a maximum capability for glucose measurement of 600 mg/dL.
After saline or compound treatments, a small drop of blood from the mouse tail was collected in an EDTA-coated eppendorf tube (to prevent blood coagulation) (Fisher Scientific), and then subjected to a HbA1c assay using the Crystal Chem's or Kamiya's mouse glycated hemoglobin A1c ELISA kit, according to the manufacturer's protocol. Also after the final treatments, mouse serum was collected and subjected to HbA1c assay using the Kamiya Biomeidcal Company's mouse HbA1c kit, according to the manufacturer's protocol.

Where [1] appears, read: 25 μg selenium/kg ip daily for 43 days from 41 days of age (FIG. 5).
The mark [2] stands for this setting: 25 μg selenium/kg ip daily, 3 months (FIG. 4).

On to `C[Se]C[C@H]1O[C@@H](n2cnc3c(N)ncnc32)C(OC(C)=O)C1OC(C)=O` (stereo partly drawn) [Compound #43, Adenosine, 5′-Se-methyl-5′-selino-, 2′,3′-diacetate], for which the “effect on Glut4 mRNA expression” value in the experiment with Glut4 (300 ppb with 8-CPT/Dex, 6 and 24 hours (FIG. 16B)) is “significant increase in Glut4 mRNA expression”. For the same molecule, the “increase of basal Glut4 mRNA expression” value with Glut4 (300 ppb, serum-free, 24 hours (FIG. 16A)) is “about 2.1 fold”. Moreover, the “increase of phosphorylated Insrβ at Tyrosine 1146 in liver” value on Insrβ (52 days (FIG. 22A)) is given as about 2.9 fold. For the same molecule, the “increase of phosphorylated Insrβ at Tyrosine 1150/1151 in liver” value on Insrβ (52 days (FIG. 22B)) is reported as about 2.95 fold. In the experiment with Lepr^db/db mice (25 μg selenium or sulfur/kg ip daily, 3 months (FIG. 4)), the “effect on fasting blood glucose levels” value was “statistically significant decrease in fasting blood glucose levels”. In addition, in the experiment on Lepr^db/db mice (setting [1]), the “decrease in fasting blood glucose levels vs saline” value is given as about 35% and the “fasting blood glucose levels” value is recorded as 188 mg/dL. Besides, the “effect on HbA1c levels” value in the experiment with Lepr^db/db mice (25 μg selenium/kg ip daily for 90 days from 41 days of age (FIG. 5)) is reported as “significant decrease of HbA1c levels”. Moreover, in the experiment with Lepr^db/db mice (25 μg selenium/kg ip daily from day 38, measured at 90 days of age (FIG. 3)), the “reduction in serum HbA1c levels compared to saline” value is recorded as about 20%. The “reduction of fasting blood glucose levels compared to controls” value in the experiment on Lepr^db/db mice (25 μg selenium/kg ip daily from day 38, measured at day 81 (FIG. 3)) is “about 45%”. Also, in the experiment with Lepr^db/db mice (setting [2]), the “decrease of blood HbA1c levels compared to saline” value is “about 30%” and the fasting glucose levels entry is recorded as “about 135 mg/dL”.
